In brackets after ≈: the same amount, converted by molar mass. Counter-ions that a name gives are not always drawn. Like-named read-outs stand apart in the source and are kept apart here.
Legend:
[1] = extent of activity of DPH; cited from earlier work
[2] = tested on: ventricular rate and rhythm; assay: Antiarrhythmic activity: protection against chloroform-induced ventricular arrhythmia in mice (Lawson); type: in vivo; conditions: Mus musculus, ip, 10 min; intraperitoneal, 10 min before chloroform; protected = ventricular rate not exceeding 100 contractions in 30 s; groups of 5 mice; parentheses = 95% confidence limits; read-out: ED50 (95% CL)
Protocol: The antiarrhythmic activity of the compounds of this invention, specifically those enumerated in the Summary and presented as the above examples, was compared to that of diphenylhydantoin (I), 3-(3-diethylaminopropyl)- 5,5-diphenylhydantoin (II), 3-[3-(1-piperidyl)-propyl]- 5,5-diphenylhydantoin (III), and 3-(3-morpholinopropyl)-5,5-diphenylhydantoin (IV).
(§1) The tests compounds were administered to groups consisting of 5 mice in varying intraperitoneal doses. Ten minutes after administration of a given dose of a compound, a mouse was transferred to a covered 300 ml glass beaker which contained a wad of cotton saturated with about 20 ml of chloroform. The animal was observed closely and removed from the beaker immediately after respiratory arrest. The heart was quickly exposed by making an incision through the abdomen, diaphragm, thorax and pericardium for visual inspection of ventricular rate and rhythm. Ventricular contractions were counted for 30 seconds. According to the procedure reported by Lawson (J. Pharmacol. Exp. Therap., 160:22 [1968]), animals with a ventricular rate not exceeding 100 contractions during the 30 second observation period were considered protected. Results obtained with each dose were used to calculate the mean effective doses (ED50) after the method of Litchfield and Wilcoxon (J. Pharmacol. Exp. Therap. 96: 99-113 [ 1949]).
In Table A, the compounds of this invention are listed by the arabic numeral assigned in the Summary and the above corresponding Example Number; the Roman numerals refer to the compounds so designated above in this Example and in the Description of the Prior Art.

in vivo = type: in vivo; conditions: intraperitoneal; for MLD (Minimum Lethal Dose): deaths before exposure to chloroform; for selectivity ratio: mouse, in vivo, ip, calculated with Minimum Lethal Dose data, read-out: MLD/ED50 (Therapeutic Index)
Protocol: as §1

Guinea pig atria = assay: Refractory period in isolated atria, electrical stimulation (Dawes); conditions: Cavia porcellus, read-out: EC50 (amount necessary for increasing the minimum interval by 50 percent over control values)
Protocol: The effect of the compounds of this invention on the refractory period in the atrium was studied and compared to that hydantoin according to the procedure described by Dawes (Brit. J. Pharmacol., 1: 90, [1946]).
Guinea pig atria, suspended in an isolated organ chamber, were stimulated electrically at increasing frequencies while the resulting mechanical contractions were recorded. The minimum interval between two consecutive stimuli necessary for eliciting a mechanical response was determined before and after incubation with varying concentrations of the test compounds. The minimum interval thus determined is an indirect measure of the refractory period in the tissue, and a prolongation of this interval indicates an increased refractory period. From the increase in minimum interval observed with each concentration, the amount necessary for increasing the interval by 50 percent over control values (EC50) was determined for each compound.

heart = conditions: prior art; cited from earlier work
[3] = prior art, cited from earlier work
[4] = guinea pig atria, electrical stimulation, indirect measure of refractory period

Row | SMILES | ED50 [2] [mg/kg] | MLD (Minimum Lethal Dose) (in vivo) [mg/kg] | selectivity ratio (in vivo) | EC50 (Guinea pig atria; [4]) [µg/mL] | also measured
1 | Nc1ccc(C2(c3ccccc3)NC(=O)NC2=O)cc1 (centres unmarked) [5-(4-aminophenyl)-5-phenylhydantoin] |  |  |  |  | activity relative to DPH [1]: 50%
2 | O=C(O)/C=C\C(=O)O.O=C1NC(c2ccccc2)(c2ccccc2)C(=O)N1CCCN1CCN(c2ccccc2)CC1 [Compound 1, 3-[3-(4-phenyl-1-piperazinyl)propyl]-5,5-diphenylhydantoin maleate] | 16.4 | > 160 | > 9.77 | 4.4 | 
3 | O=C1NC(c2ccccc2)(c2ccccc2)C(=O)N1CCCN1CCC(c2ccccc2)CC1 [Compound 2, 3-[3-(4-phenyl-1-piperidyl)propyl]-5,5-diphenylhydantoin] | 13.5 | 320 | 23.7 | 1.1 (≈ 2.43 µM) | 
4 | O=C1NC(c2ccccc2)(c2ccccc2)C(=O)N1CCN1CC=C(c2ccccc2)CC1 [Compound 4, 5,5-diphenyl-3-[2-(4-phenyl-1,2,3,6-tetrahydropyridyl)ethyl]hydantoin hydrochloride] | 96 | > 178 | > 1.85 |  | EC50 (Guinea pig atria): 5.7 µg/mL
5 | Cl.O=C1NC(c2ccccc2)(c2ccccc2)C(=O)N1CCCN1CCC(O)(c2ccccc2)CC1 [Compound 5, 5,5-diphenyl-3-[3-(4-hydroxy-4-phenyl-1-piperidyl)propyl]hydantoin hydrochloride] | 5.8 | 31 | 5.35 |  | EC50 (Guinea pig atria): > 10 µg/mL
6 | CC(C)(C)NCC(O)CN1C(=O)NC(c2ccccc2)(c2ccccc2)C1=O.Cl (centres unmarked) [Compound 6, 3-(3-t-butylamino-2-hydroxypropyl)-5,5-diphenylhydantoin hydrochloride] | 9.4 | 100 | 10.6 | 1.5 | 
7 | Cl.O=C1NC(c2ccc(Cl)cc2)(c2ccc(Cl)cc2)C(=O)N1CCCN1CCC(c2ccccc2)CC1 [Compound 8, 3-[3-(4-phenyl-1-piperidyl)propyl]-5,5-di(4-chlorophenyl)hydantoin hydrochloride] | 75 | > 178 | > 2.28 | > 10 | 
8 | COc1ccc(C2(c3ccc(OC)cc3)NC(=O)N(CCCN3CCC(c4ccccc4)CC3)C2=O)cc1.Cl [Compound 10, 3-[3-(4-phenyl-1-piperidyl)propyl]-5,5-di(4-methoxyphenyl)hydantoin hydrochloride] | 34 | > 178 | > 5.24 | 6.4 | 
9 | Cl.O=C1NC(c2ccccc2)(c2ccc(Br)cc2)C(=O)N1CCCN1CCC(c2ccccc2)CC1 (centres unmarked) [Compound 11, 3-[3-(4-phenyl-1-piperidyl)propyl]-5-(4-bromophenyl)-5-phenylhydantoin hydrochloride] | 33.5 | > 100 | > 2.98 | 4 | 
10 | Cc1ccc(C2(c3ccccc3)NC(=O)N(CCCN3CCC(c4ccccc4)CC3)C2=O)cc1.O=C(O)/C=C\C(=O)O (centres unmarked) [Compound 12, 3-[3-(4-phenyl-1-piperidyl)propyl]-5-phenyl-5-(4-tolyl)hydantoin maleate] | 19.5 | > 100 | > 5.13 | 4.8 | 
11 | Cc1ccc(C2(c3ccc(C)cc3)NC(=O)N(CCCN3CCC(c4ccccc4)CC3)C2=O)cc1 [Compound 13, 3-[3-(4-phenyl-1-piperidyl)propyl]-5,5-di(4-tolyl)hydantoin] | 4.5 | > 100 | > 22.2 | > 10 | 
12 | O=C1NC(c2ccccc2)(c2ccc([N+](=O)[O-])cc2)C(=O)N1CCCN1CCC(c2ccccc2)CC1 (centres unmarked) [Compound 14, 3-[3-(4-phenyl-1-piperidyl)propyl]-5-(4-nitrophenyl)-5-phenylhydantoin] | 10.5 | > 100 | > 9.52 | 8.3 (≈ 16.6 µM) | 
13 | Nc1ccc(C2(c3ccccc3)NC(=O)N(CCCN3CCC(c4ccccc4)CC3)C2=O)cc1 (centres unmarked) [Compound 15, 3-[3-(4-phenyl-1-piperidyl)propyl]-5-(4-aminophenyl)-5-phenylhydantoin] | 3.4 | > 100 | > 29.4 | 3.7 (≈ 7.9 µM) | 
14 | Cc1ccc(C2(c3ccc(C)cc3)NC(=O)N(CCCN3CCC(O)(c4ccccc4)CC3)C2=O)cc1 [Compound 18, 3-[3-(4-hydroxy-4-phenyl-1-piperidyl)propyl]-5,5-di-(4-tolyl)hydantoin] | 24 | > 100 | > 4.17 |  | EC50 (Guinea pig atria): 1.9 µg/mL (≈ 3.82 µM)
15 | O=C1NC(=O)C(c2ccccc2)(c2ccccc2)N1 [I, 5,5-diphenyl-2,4-imidazolidinedione] | 394 | 1000 |  | 20 (≈ 79.3 µM) | action on ventricular arrhythmias induced by digitalis (heart): antagonize ventricular arrhythmias induced by digitalis; atrio-ventricular nodal conduction (heart): enhances atrio-ventricular nodal conduction; effective refractory period (heart): reduces the effective refractory period; ventricular automaticity (heart): depresses ventricular automaticity; side effects of large doses ([3]; large doses): atrio-ventricular blockage, bradycardia, or even cardiac arrest; untoward side effects [3]: dizziness, nausea, emesis, nystigmus, and ataxia
16 | CCN(CC)CCCN1C(=O)NC(c2ccccc2)(c2ccccc2)C1=O [II, 3-(3-diethylaminopropyl)-5,5-diphenylhydantoin, reference compound] | 14 | 56 | 4 |  | 
17 | O=C1NC(c2ccccc2)(c2ccccc2)C(=O)N1CCCN1CCCCC1 [III, 3-[3(1-piperidyl)propyl]-5,5-diphenylhydantoin, reference compound] | 19 | 31 | 1.63 |  | 
18 | O=C1NC(c2ccccc2)(c2ccccc2)C(=O)N1CCCN1CCOCC1 [IV, 3-(3-morpholinopropyl)-5,5-diphenylhydantoin, reference compound] | 76 | 178 | 2.34 |  | 

— US4006232A, “Therapeutic method of treating cardiac arrhythmias utilizing 3-substituted diphenylhydantoins” (Miles Laboratories, Inc., priority 1974, dated 1977)
